# Assay results: US12319700B2, “Monohydrate potassium salt of a thienopyridone derivative and its preparation process” (POXEL, priority 2018, dated 2025)
# Columns and labels:
# ob/ob mice [1] = assay: Body weight in male obese diabetic dyslipidemic ob/ob mice, 5 weeks of treatment; type: in vivo, mouse
# Procedure: (§1) Effects of Compound (I) in male obese diabetic dyslipidemic ob/ob mice after 5 weeks of treatment.
# (§2) Compound (I) was administered at 25, 50 and 100 mg/kg twice a day by oral route in carboxy methylcellulose 0.5%/Tween 80 (98/2) (n=10). A group of ob/ob mice was treated with carboxy methylcellulose 0.5%/Tween 80 (98/2) as a control group.
# AMPK = AMPK activity (P-AMPK/AMPK) in liver and visceral adipose tissue of DIO-NASH mice; type: in vivo, mouse; details: 8 weeks; for increase of AMPK activity in the liver (P-AMPK/AMPK): p<0.05
# Procedure: (§3) • The effects of the monohydrate potassium salt of formula (I) (or “Compound (I)”) on liver and adipose tissue (AT) metabolism in a diet-induced obesity non-alcoholic steatohepatitis (DIO-NASH) mouse model are reported here.
# (§4) After 41 weeks, only DIO-NASH mice with biopsy-confirmed steatosis (score ≥2) and fibrosis (stage ≥1) were included and received orally (n=12) vehicle (ctrl), compound (I) 35 or 75 mg/kg twice daily for 8 weeks.
# ob/ob mice [2] = assay: Dyslipidemia in male obese diabetic dyslipidemic ob/ob mice, 5 weeks of treatment; type: in vivo, mouse
# Procedure: as §1, §2
# [3] = system: Spontaneous Hypertensive Rat (SHR); assay: Arterial pressure by telemetry in conscious unrestrained Spontaneous Hypertensive Rat (SHR); type: in vivo; details: 150 mg/kg bid for 5 days, over 24 h on the 5th day
# Procedure: The effects of Compound (I) on arterial pressure was measured in conscious unrestrained well-known rat model of hypertension, the Spontaneous Hypertensive Rat (SHR), using telemetry. SHR aged of 21-22 weeks present a higher arterial pressure compared to healthy Wistar rats: systolic arterial pressure was 200 mmHg vs 120 mmHg in Wistar rats.
# Four male SHR were submitted to surgery to implant a blood pressure catheter into the abdominal aorta. The telemetry transmitter was attached to the peritoneum. Ten days after recovery, the same animal received vehicle or Compound (I) 150 mg/kg bid administered for 5 days, 5 weeks apart. Systolic, diastolic and mean arterial pressures were recorded during 24 h, the 5th day of treatment.
# [4] = system: diet-induced obesity non-alcoholic steatohepatitis (DIO-NASH) mouse model; assay: Diet-induced obesity NASH (DIO-NASH) mouse model: effects on liver and adipose tissue metabolism; type: in vivo; details: 8 weeks; for change of liver weight compared to ctrl group / decrease in hepatic stellate cell activation (aSMA positive staining) / decrease in plasma free fatty acid level / increase of PGCl-α protein expression in AT / reduction of fat pad mass / reduction of liver TG content / hormone-sensitive lipase P-HSLser565 / down-regulation of fibrotic gene expression (type I collagen): p<0.01; for hormone-sensitive lipase P-HSLser563 / hormone-sensitive lipase P-HSLser565: adipose tissue; for down-regulation of fibrotic gene expression (type I collagen): liver
# Procedure: as §3, §4
# [5] = 50 mg/kg twice a day oral, p<0.001
# [6] = 100 mg/kg twice a day oral, p<0.001
compound,measurement,setting,value
"O=c1[nH]c2sc(Cl)c(-c3ccc4c(c3O)CCCC4)c2c([O-])c1-c1ccccc1.[K+] [Compound (I), monohydrate potassium salt of 2-chloro-4-hydroxy-3-(5-hydroxytetralin-6-yl)-5-phenyl-7H-thieno[2,3-b]pyridin-6-one]",decrease of body weight compared to day 1,ob/ob mice [1]; 25 mg/kg twice a day oral,−17%
same,decrease of body weight compared to day 1,ob/ob mice [1]; 50 mg/kg twice a day oral,−24%
same,AMPK activation in visceral AT (P-AMPK/AMPK),"AMPK; 35 mg/kg orally twice daily, ns",+130%
same,increase of AMPK activity in the liver (P-AMPK/AMPK),AMPK; 35 mg/kg orally twice daily,+128%
same,AMPK activation in visceral AT (P-AMPK/AMPK),"AMPK; 75 mg/kg orally twice daily, p<0.01",+152%
same,increase of AMPK activity in the liver (P-AMPK/AMPK),AMPK; 75 mg/kg orally twice daily,+143%
same,decrease of plasma FFA,"ob/ob mice [2]; 25 mg/kg twice a day oral, NS",−14%
same,decrease of plasma triglyceride,"ob/ob mice [2]; 25 mg/kg twice a day oral, NS",−19%
same,increase in HDL cholesterol,"ob/ob mice [2]; 25 mg/kg twice a day oral, NS",+12%
same,decrease of plasma triglyceride,ob/ob mice [2]; [5],−40%
same,increase in HDL cholesterol,ob/ob mice [2]; [5],+31%
same,decrease of plasma FFA,"ob/ob mice [2]; 50 mg/kg twice a day oral, p<0.05",−35%
same,decrease of plasma FFA,"ob/ob mice [2]; 100 mg/kg twice a day oral, NS",−21%
same,decrease of plasma triglyceride,ob/ob mice [2]; [6],−43%
same,increase in HDL cholesterol,ob/ob mice [2]; [6],+32%
same,reduction of diastolic arterial pressure (DAP) compared to vehicle-treated SHR,[3],−17 mmHg
same,reduction of mean arterial pressure (MAP) compared to vehicle-treated SHR,[3],−18 mmHg
same,reduction of systolic arterial pressure (SAP) compared to vehicle-treated SHR,[3],−19 mmHg
same,reduction of NAFLD Activity Score (NAS),"[4]; 35 mg/kg orally twice daily, from 6.6, p<0.01",−32%
same,change of liver weight compared to ctrl group,[4]; 35 mg/kg orally twice daily,−23%
same,decrease in hepatic stellate cell activation (aSMA positive staining),[4]; 35 mg/kg orally twice daily,−34%
same,decrease in plasma free fatty acid level,[4]; 35 mg/kg orally twice daily,−37%
same,increase of PGCl-α protein expression in AT,[4]; 35 mg/kg orally twice daily,+321%
same,reduction of fat pad mass,[4]; 35 mg/kg orally twice daily,−25%
same,reduction of liver TG content,[4]; 35 mg/kg orally twice daily,−36%
same,NAFLD Activity Score (NAS) after treatment,"[4]; 35 mg/kg orally twice daily, from 6.6",4.5
same,reduction of NAFLD Activity Score (NAS),"[4]; 75 mg/kg orally twice daily, from 6.7, p<0.01",−44%
same,change of liver weight compared to ctrl group,[4]; 75 mg/kg orally twice daily,−33%
same,decrease in hepatic stellate cell activation (aSMA positive staining),[4]; 75 mg/kg orally twice daily,−39%
same,decrease in plasma free fatty acid level,[4]; 75 mg/kg orally twice daily,−38%
same,increase of PGCl-α protein expression in AT,[4]; 75 mg/kg orally twice daily,+409%
same,reduction of fat pad mass,[4]; 75 mg/kg orally twice daily,−37%
same,reduction of liver TG content,[4]; 75 mg/kg orally twice daily,−42%
same,decrease of MCP-1 gene expression in AT,"[4]; 75 mg/kg orally twice daily, p<0.05",−55%
same,NAFLD Activity Score (NAS) after treatment,"[4]; 75 mg/kg orally twice daily, from 6.7",3.8
same,hormone-sensitive lipase P-HSLser563,[4]; 35 mg/kg orally twice daily,−67%
same,hormone-sensitive lipase P-HSLser565,[4]; 35 mg/kg orally twice daily,+416%
same,hormone-sensitive lipase P-HSLser563,[4]; 75 mg/kg orally twice daily,−52%
same,hormone-sensitive lipase P-HSLser565,[4]; 75 mg/kg orally twice daily,+425%
same,down-regulation of fibrotic gene expression (type I collagen),[4]; 35 mg/kg orally twice daily,−65%
same,down-regulation of fibrotic gene expression (type I collagen),[4]; 75 mg/kg orally twice daily,−68%
